≈ marks a conversion by molar mass, not a printed value.
How the values were obtained:
MT4 [1] = test: Inhibitory effect on replication of RNA virus HIV-1 in MT-4 cell line.; format: functional, cell-based; settings: Homo sapiens
ESM [2] = test: Inhibitory effect on replication of DNA virus VV on ESM cell line.; format: functional, cell-based
PRK [3] = test: Inhibitory effect on replication of DNA virus Cell morphology on PRK cell line; format: functional, cell-based; settings: Oryctolagus cuniculus
Vero [4] = test: Inhibitory effect on replication of RNA virus reo-1 in Vero cell line.; format: functional, cell-based; settings: Chlorocebus sabaeus
Vero [5] = test: Inhibitory effect on replication of RNA virus protein synthesis in Vero cell line.; format: functional, cell-based; settings: Chlorocebus sabaeus
Vero [6] = test: Inhibitory effect on replication of RNA virus SFV in Vero cell line; format: functional, cell-based; settings: Chlorocebus sabaeus
HEL [7] = test: Inhibitory effect on replication of DNA virus CMV (Davis) on HEL cell line.; format: functional, cell-based; settings: Homo sapiens
HeLa [8] = test: cells; settings: Homo sapiens
ESM [9] = test: Inhibitory effect on replication of RNA virus cell morphology in ESM cell line.; format: functional, cell-based
HEL [10] = test: Inhibitory effect on replication of DNA virus TK-VZV (YSR) on HEL cell line.; format: functional, cell-based; settings: Homo sapiens
Vero [11] = test: Inhibitory effect on replication of RNA virus coxsB-4 in Vero cell line; format: functional, cell-based; settings: Chlorocebus sabaeus
MT4 [12] = test: Inhibitory effect on replication of RNA virus HIV-2 in MT-4 cell line.; format: functional, cell-based; settings: Homo sapiens
MDCK [13] = test: Inhibitory effect on replication of RNA virus cell morphology in MDCK cell line.; format: functional, cell-based; settings: Canis lupus familiaris
[14] = Inhibitory effect on replication of DNA virus HSV-1 (KOS) in PRK cell line.; format: functional, cell-based; settings: Oryctolagus cuniculus
HeLa [15] = test: Inhibitory effect on replication of RNA virus cell morphology in HeLa cell line.; format: functional, cell-based; settings: Homo sapiens
MT4 [16] = test: Inhibitory effect on replication of RNA virus cell growth in MT-4 cell line.; format: functional, cell-based; settings: Homo sapiens
ESM [17] = test: Inhibitory effect on replication of DNA virus TK-HSV-1 (B2006) on ESM cell line.; format: functional, cell-based
Vero [18] = test: Inhibitory effect on replication of RNA virus TV in Vero cell line.; format: functional, cell-based; settings: Chlorocebus sabaeus
Vero [19] = test: Inhibitory effect on replication of RNA virus PV-3 in Vero cell line.; format: functional, cell-based; settings: Chlorocebus sabaeus
Vero [20] = test: Inhibitory effect on replication of RNA virus JV in Vero cell line.; format: functional, cell-based; settings: Chlorocebus sabaeus
Vero [21] = test: Inhibitory effect on replication of RNA virus cell morphology in Vero cell line.; format: functional, cell-based; settings: Chlorocebus sabaeus
HEL [22] = test: Inhibitory effect on replication of DNA virus CMV (AD-169) on HEL cell line.; format: functional, cell-based; settings: Homo sapiens
PRK [23] = test: Inhibitory effect on replication of DNA virus VV on PRK cell line.; format: functional, cell-based; settings: Oryctolagus cuniculus
HEL [24] = test: Inhibitory effect on replication of DNA virus VZV (YS) on HEL cell line.; format: functional, cell-based; settings: Homo sapiens
ESM [25] = test: Inhibitory effect on replication of DNA virus HSV-1 (KOS) in ESM cell line; format: functional, cell-based
Vero [26] = test: Inhibitory effect on replication of RNA virus RNA synthesis in Vero cell line.; format: functional, cell-based; settings: Chlorocebus sabaeus
ESM [27] = test: Inhibitory effect on replication of DNA virus Cell morphology on ESM cell line; format: functional, cell-based
MDCK [28] = test: cells; settings: Canis lupus familiaris
PRK [29] = test: Inhibitory effect on replication of RNA virus VSV in PRK cell line.; format: functional, cell-based; settings: Oryctolagus cuniculus
ESM [30] = test: Inhibitory effect on replication of DNA virus TK-HSV-1 (VMW 1837) on ESM cell line.; format: functional, cell-based
HEL [31] = test: Inhibitory effect on replication of DNA virus TK-VZV (07-1) on HEL cell line.; format: functional, cell-based; settings: Homo sapiens
HeLa [32] = test: Inhibitory effect on replication of RNA virus coxsB-4 in HeLa cell line.; format: functional, cell-based; settings: Homo sapiens
[33] = Inhibitory effect on replication of DNA virus HSV-2 (G) in PRK cell line.; format: functional, cell-based, herpes simplex virus; settings: Human alphaherpesvirus 1, PRK
MDCK [34] = test: cells; settings: Canis lupus familiaris; remark: listed apart in the source
ESM [35] = test: Inhibitory effect on replication of DNA virus HSV-2 (G) in ESM cell line; format: functional, cell-based
HEL [36] = test: Inhibitory effect on replication of DNA virus Cell growth on HEL cell line.; format: functional, cell-based; settings: Homo sapiens
PRK [37] = test: Inhibitory effect on replication of RNA virus cell morphology in PRK cell line.; format: functional, cell-based; settings: Oryctolagus cuniculus
HEL [38] = test: Inhibitory effect on replication of DNA virus VZV (Oka) on HEL cell line.; format: functional, cell-based; settings: Homo sapiens
ESM [39] = test: Inhibitory effect on replication of RNA virus VSV in ESM cell line.; format: functional, cell-based
Vero [40] = test: Inhibitory effect on replication of RNA virus SV in Vero cell line.; format: functional, cell-based; settings: Chlorocebus sabaeus

Work on C[C@@H](O)C1=C[C@@H](n2cnc3c(N)ncnc32)[C@H](O)[C@@H]1O yielded an IC50 (MT4 [1]) of over 0.03 µg/mL, an IC50 (ESM [2]) of 0.04 µg/mL (≈ 0.144 µM) and an IC50 (PRK [3]) of over 400 µg/mL. It also gave an IC50 (Vero [4]) of 0.04 µg/mL (≈ 0.144 µM), an IC50 (Vero [5]) of 56 µg/mL (≈ 202 µM) and an IC50 (Vero [6]) of over 200 µg/mL. It also gave an IC50 (HEL [7]) of 0.03 µg/mL (≈ 0.108 µM), an IC50 (HeLa [8]) of over 400 µg/mL and an IC50 (ESM [9]) of over 400 µg/mL. For the same compound, the IC50 (HEL [10]) was 6 µg/mL (≈ 21.6 µM), the IC50 (Vero [11]) was over 200 µg/mL and the IC50 (MT4 [12]) was over 0.03 µg/mL. For the same compound, the IC50 (MDCK [13]) was over 100 µg/mL, the IC50 [14] was over 400 µg/mL and the IC50 (HeLa [15]) was over 400 µg/mL. The IC50 (MT4 [16]) was 0.09 µg/mL (≈ 0.325 µM), the IC50 (ESM [17]) was 70 µg/mL (≈ 252 µM) and the IC50 (Vero [18]) was 0.5 µg/mL (≈ 1.8 µM). It also gave an IC50 (Vero [19]) of 0.1 µg/mL (≈ 0.361 µM), an IC50 (Vero [20]) of 0.4 µg/mL (≈ 1.44 µM) and an IC50 (Vero [21]) of over 400 µg/mL. It also gave an IC50 (HEL [22]) of 0.06 µg/mL (≈ 0.216 µM), an IC50 (PRK [23]) of 0.1 µg/mL (≈ 0.361 µM) and an IC50 (HEL [24]) of 65 µg/mL (≈ 234 µM). For the same compound, the IC50 (ESM [25]) was over 400 µg/mL, the IC50 (Vero [26]) was 0.1 µg/mL (≈ 0.361 µM) and the IC50 (ESM [27]) was over 400 µg/mL. The IC50 (MDCK [28]) was over 100 µg/mL, the IC50 (PRK [29]) was 0.1 µg/mL (≈ 0.361 µM) and the IC50 (ESM [30]) was 70 µg/mL (≈ 252 µM). For the same compound, the IC50 (HEL [31]) was 38 µg/mL (≈ 137 µM), the IC50 (HeLa [32]) was over 400 µg/mL and the IC50 [33] was over 200 µg/mL. It also gave an IC50 (MDCK [34]) of over 100 µg/mL, an IC50 (ESM [35]) of over 400 µg/mL and an IC50 (HEL [36]) of over 200 µg/mL. For the same compound, the IC50 (PRK [37]) was over 400 µg/mL, the IC50 (HEL [38]) was 21 µg/mL (≈ 75.7 µM) and the IC50 (ESM [39]) was 0.07 µg/mL (≈ 0.252 µM). For the same compound, the IC50 (Vero [40]) was 4 µg/mL (≈ 14.4 µM).
